Assay results reported in the OPERA property sets (Mansouri et al. 2018).

Conditions: for log10 BCF / log10 biotransformation half-life (days): fish

Structure (SMILES) | melting point | boiling point | other results
O=C1C=C(Cl)C(=O)C(Cl)=C1 | 123 °C | – | –
CC1(C)OCC(CO)O1 (stereo not given) | – | – | log10 vapour pressure (mmHg): 2.03
CCOC(=O)c1cccc(Cl)c1O | 21 °C | 270 °C | –
Nc1ccccc1[N+](=O)[O-] | 71 °C | 284 °C | log10 Henry constant (atm·m³/mol): -7.23; log10 vapour pressure (mmHg): -2.56; ready biodegradability: not readily biodegradable; log10 BCF: 1; log10 biotransformation half-life (days): -0.46
Fc1ccc(I)cc1 | -27 °C | 183 °C | –
c1ccc(-c2nnc(-c3ccccc3)o2)cc1 | 139 °C | – | –
N#Cc1ccc(O)cc1 | 112 °C | – | ready biodegradability: not readily biodegradable; log10 BCF: 0.91
CCC(C(C)=O)C(C)=O | – | 178 °C | –
CC(=O)Nc1ccccc1[N+](=O)[O-] | 94 °C | – | –
CCCCCCCCCCOC(C)=O | -15 °C | 244 °C | –
Cc1ccc2ccc3ccccc3c2c1 | 65 °C | 350 °C | –
C#CCOC(=O)[C@@H](C)Oc1ccc(Oc2ncc(Cl)cc2F)cc1 | 59.5 °C | – | log10 vapour pressure (mmHg): -7.62
CCCCCC[C@@H](O)C/C=C\CCCCCCCC(=O)O | 5.5 °C | – | –
CCCC(O)(CC)CC | – | 160 °C | –
COc1cc(C(C)=O)ccc1O | 115 °C | 297 °C | –
O=C(O)COc1c(F)c(F)c(F)c(F)c1F | 109 °C | – | –
NNC(=O)c1ccccc1O | 148 °C | – | –
CCCOC(=O)c1ccccc1 | -51.6 °C | 211 °C | log10 vapour pressure (mmHg): -0.867
O=C(O)C=Cc1ccc(O)cc1 | – | – | ready biodegradability: readily biodegradable
BrCCCCCBr | -39.5 °C | 222 °C | –
CCN(CC)C(=O)COC(=O)c1ccccc1 | 72.5 °C | – | –
CCCCCS(=O)CCCCC | 58 °C | – | –
C[C@]12C[C@H]3S[C@H]3C[C@@H]1CC[C@@H]1[C@@H]2CC[C@]2(C)[C@@H](O)CC[C@@H]12 | 127 °C | – | –
N#Cc1ccc2ccccc2n1 | 95 °C | – | –

Structure (SMILES) | melting point | boiling point | other results
CC=C(Cl)Cl | – | 76.5 °C | log10 vapour pressure (mmHg): 1.96
COC(=O)C1(S(=O)(=O)c2ccccc2)CCC1 | 108 °C | – | –
CC1(C)[C@H](C(=O)O[C@H](C#N)c2cccc(Oc3ccccc3)c2)[C@@H]1/C=C\C(=O)OC(C(F)(F)F)C(F)(F)F | 81.5 °C | – | log10 vapour pressure (mmHg): -9.48
CCCCC(=O)O[C@]1(C(=O)CO)CC[C@H]2[C@@H]3CCC4=CC(=O)C=C[C@]4(C)[C@H]3[C@@H](O)C[C@@]21C | 212 °C | – | –
FC(F)(F)C(F)(F)C(F)(F)I | -95 °C | 41.2 °C | –
CC(COc1ccccc1)N(CCCl)Cc1ccccc1 (stereo not given) | 39 °C | – | –
CCCOC(OCCC)OCCC | – | 191 °C | –
Cc1cc(N)ccc1Cl | 83.5 °C | 241 °C | ready biodegradability: not readily biodegradable
CSCC[C@H](NC(C)=O)C(=O)O | 106 °C | – | –
CCC(C)CC | -163 °C | 63.2 °C | log10 vapour pressure (mmHg): 2.28
C/C=N/O | 45 °C | 115 °C | –
CC(C)CCOC=O | -93.5 °C | 124 °C | log10 Henry constant (atm·m³/mol): -3.17; log10 vapour pressure (mmHg): 1.18
CCCCN1CCCC1 | – | 154 °C | ready biodegradability: readily biodegradable
Nc1ccc(O)c2c1C(=O)c1ccccc1C2=O | 216 °C | – | log10 vapour pressure (mmHg): -8.52
CCCNC(=O)OCC | – | 192 °C | –
N=C(NCCCCCCNC(=N)NC(=N)Nc1ccc(Cl)cc1)NC(=N)Nc1ccc(Cl)cc1 | 134 °C | – | –
O=C(O)Cc1ccc(O)c(O)c1 | 128 °C | – | –
CCCC(C)(CC)CCC | – | 161 °C | –
Clc1ccc2c(c1)Oc1ccc(Cl)cc1O2 | – | – | log10 BCF: 2.54; log10 biotransformation half-life (days): 0.23
CC(C)COC(C)OCC(C)C | – | 171 °C | –
Clc1cc(Cl)cc(Oc2ccccc2)c1 | – | – | log10 vapour pressure (mmHg): -3
CC(C)C(C(=O)OC(C#N)c1cccc(Oc2ccccc2)c1)c1ccc(Cl)cc1 (stereo not given) | 52.2 °C | – | log10 Koc (L/kg): 3.73; log10 vapour pressure (mmHg): -8.82; log10 BCF: 2.85; log10 biotransformation half-life (days): 0.69
CCC(C)(C)CCC(C)C | – | 153 °C | –
CC(C)COC(=O)c1ccccc1C(=O)OCC(C)C | – | 296 °C | log10 Koc (L/kg): 3.14; ready biodegradability: not readily biodegradable

Structure (SMILES) | melting point | boiling point | other results
C1=CC2C=CC1C2 | -19.1 °C | 89.5 °C | –
CC(C)=CC(=O)Cl | – | 146 °C | –
Nc1cc(Cl)cc(C(=O)O)c1Cl | 200 °C | 312 °C | log10 Koc (L/kg): 1.48; ready biodegradability: not readily biodegradable
C=C(C)C(=O)OCC(CC)CCCC (stereo not given) | – | – | ready biodegradability: readily biodegradable
CC1(c2ccccc2)CCOCO1 (stereo not given) | 37.5 °C | 256 °C | –
COc1ccc(CCl)cc1 | 24.5 °C | 262 °C | –
Clc1cc2ccccc2c(Cl)c1Cl | – | – | log10 Koa: 7.66; log10 vapour pressure (mmHg): -4.7
CN(C)c1ccc(CO)cc1 | 69 °C | – | –
O=[N+]([O-])N1CCCCC1 | -5.5 °C | 245 °C | –
Nc1nccnn1 | 176 °C | – | –
Fc1cccc2ccccc12 | -9 °C | 215 °C | –
O=C(Nc1ccc(O)cc1)c1ccccc1O | 179 °C | – | –
CCN(Cc1c(F)cccc1Cl)c1c([N+](=O)[O-])cc(C(F)(F)F)cc1[N+](=O)[O-] | 102 °C | – | log10 Koc (L/kg): 4; log10 vapour pressure (mmHg): -6.62
NNC=O | 55 °C | – | –
O[C@@H]1[C@H]2CC[C@H](C2)[C@@H]1O | 139 °C | – | –
Cl.c1ccc(CC2=NCCN2)cc1 | 175 °C | – | –
CCC(=O)C(CC(C)N1CCOCC1)(c1ccccc1)c1ccccc1 (stereo not given) | 75.5 °C | – | –
Nc1cnc2ccccc2c1 | 91.5 °C | – | log10 vapour pressure (mmHg): -4.54
CC(C)C(C)O (stereo not given) | – | 112 °C | log10 vapour pressure (mmHg): 0.961
CCCl | -139 °C | 12.3 °C | log10 Henry constant (atm·m³/mol): -1.95; log10 vapour pressure (mmHg): 3; ready biodegradability: not readily biodegradable
O=C(O)CCCCCC(=O)O | 106 °C | 342 °C | log10 vapour pressure (mmHg): -7.05
CC(O)C(C)CO (stereo not given) | – | 200 °C | –
O=[N+]([O-])c1cc(Cl)ccc1O | 88.5 °C | – | ready biodegradability: not readily biodegradable
COCC(=O)OC | – | 131 °C | –

Structure (SMILES) | melting point | boiling point | other results
CCOC(=O)C1CC=CCC1 (stereo not given) | – | 194 °C | –
C1=CCc2ccccc2C1 | 25 °C | 212 °C | –
CCCC(C)=C(CC)C(C)=O | – | 190 °C | –
C/C=C\C(=O)OC1C[C@H]2O[C@@H]3C=C(C)C(=O)C[C@]3(C)[C@]1(C)C21CO1 (stereo not given in full) | 118 °C | – | –
CCOC=O | -79.6 °C | 54.4 °C | log10 Henry constant (atm·m³/mol): -3.41; log10 Koa: 2.19; log10 vapour pressure (mmHg): 2.39
C=Cc1cccc(C)c1 | -86.3 °C | 164 °C | log10 vapour pressure (mmHg): 0.231; log10 BCF: 1.55
Fc1cc2c(cc1F)Oc1cc(Cl)c(Cl)cc1O2 | 223 °C | – | log10 vapour pressure (mmHg): -7.76
Cc1ccc(N)cc1C | 51 °C | 228 °C | log10 Henry constant (atm·m³/mol): -5.73; log10 vapour pressure (mmHg): -1.55; ready biodegradability: readily biodegradable; log10 BCF: 0.95; log10 biotransformation half-life (days): -0.99
CC(C)(C)OCC1CO1 (stereo not given) | -70 °C | 152 °C | –
CCCOP(=O)(OCCC)Oc1ccc(SC)cc1 | – | – | log10 vapour pressure (mmHg): -6.05
CNCCOC(=O)/C=C1/CC[C@H]2[C@@H]([C@@H](O)C[C@@H]3[C@]2(C)CCC[C@]3(C)C(=O)OC)[C@H]1C | 115 °C | – | –
CCN(CC)CCN1C(=O)CN=C(c2ccccc2F)c2cc(Cl)ccc21 | 79.5 °C | – | –
CCC(=O)C(C)CC (stereo not given) | – | 134 °C | –
CC(C)OC(=O)c1cc(C(=O)OC(C)C)cc([N+](=O)[O-])c1 | 65 °C | – | –
C=CC(OC(C)=O)OC(C)=O | -37.6 °C | 180 °C | ready biodegradability: readily biodegradable
c1ccc(Cn2ccnc2)cc1 | 69 °C | 310 °C | –
Clc1ccc(OCOCC#CI)cc1 | – | – | ready biodegradability: not readily biodegradable
CCN(CC)CC(O)CN (stereo not given) | – | 223 °C | –
CCOC(=O)/C=C1/SC(N2CCCCC2)C(=O)N1C (stereo not given) | 140 °C | – | –
C=C1CC(=O)OC1=O | 69 °C | – | –
C/C=C(/C)C(=O)O[C@H]1CCN2CC=C(COC(=O)[C@](O)([C@H](C)OC)C(C)(C)O)[C@H]12 | 95 °C | – | –
CC(=O)c1ccco1 | 33 °C | 175 °C | –
CCNc1nsc2ccccc12 | 78 °C | – | –
CCCC(=O)c1c(C)cc(C)c(C2CC(=O)C(C(CC)=NOCC)=C(O)C2)c1C (stereo not given) | 80.8 °C | – | log10 vapour pressure (mmHg): -8.12

Structure (SMILES) | melting point | boiling point | other results
C=CC(OC)OC | – | 88 °C | –
O=[N+]([O-])c1cc(Cl)cc(Cl)c1 | 65.4 °C | – | log10 BCF: 2.23; log10 biotransformation half-life (days): 0.57
CC(C)(S)[C@@H](N)C(=O)O | 198 °C | – | –
Clc1ccc(Cc2ccccc2)cc1 | 7.5 °C | 299 °C | –
COC1[C@@H](O[C@@H]2O[C@H](C)[C@@H](O[C@H]3C[C@@](C)(O)[C@H](OC(=O)CC(C)C)[C@H](C)O3)[C@H](N(C)C)[C@H]2O)[C@@H](CC=O)C[C@@H](C)[C@@H](O)C=CC=CC[C@@H](C)OC(=O)C[C@H]1OC(C)=O (stereo not given in full) | 132 °C | – | –
CCOC(=O)CCCCCC(=O)O | 10 °C | – | –
Clc1ccc(-c2c(Cl)c(Cl)cc(Cl)c2Cl)c(Cl)c1 | – | – | log10 Henry constant (atm·m³/mol): -4.29
CCC1(CC)C(=O)NC(=O)N(C)C1=O | 150 °C | – | –
Cc1ccc(Cc2ccccc2)cc1 | -30 °C | 286 °C | –
C=C(C)C(=O)OCC(C)C | – | 155 °C | log10 vapour pressure (mmHg): 0.56
N=C(N)NC(=N)N | 136 °C | – | –
c1ccc([As](c2ccccc2)c2ccccc2)cc1 | 61 °C | 360 °C | log10 vapour pressure (mmHg): -4.3
CN1C(CSCC(F)(F)F)Nc2cc(Cl)c(S(N)(=O)=O)cc2S1(=O)=O (stereo not given) | 214 °C | – | –
CC(C)=CCN1CC[C@@]2(C)c3cc(O)ccc3C[C@@H]1[C@@H]2C | 146 °C | – | –
CCCCC[C@@H](O)CC | -45 °C | 171 °C | log10 vapour pressure (mmHg): -0.592
Cc1ccc(N)cc1F | 31 °C | – | –
CCCc1cccc(O)c1 | 26 °C | 228 °C | –
CC#N | -43.8 °C | 81.6 °C | log10 Henry constant (atm·m³/mol): -4.46; log10 Koa: 2.31; log10 vapour pressure (mmHg): 1.95; ready biodegradability: readily biodegradable
OCCc1ccccc1 | -27 °C | 218 °C | log10 Henry constant (atm·m³/mol): -6.59; log10 Koc (L/kg): 1.5; log10 vapour pressure (mmHg): -1.06; ready biodegradability: readily biodegradable
CC1CC(C)(C)CCC1=O (stereo not given) | – | 191 °C | –
CCNc1ccc2ccccc2c1 | 236 °C | 316 °C | –
Cc1cc(OC(=O)N(C)C)nn1C(=O)N(C)C | 69.5 °C | – | log10 vapour pressure (mmHg): -4.01
CC(=O)Oc1cc(C(C)C)ccc1C | – | 246 °C | –
C#CCCC(C)=O | – | 149 °C | –
